Data: a melting point compilation (Tetko et al.; mined from patent text by program, amines drawn as free bases though some values may be those of a salt)

In the case of `COc1ccc(COC(=O)Nc2cncc(O)c2CCCOc2cccnc2Oc2cccc(Cl)c2)cc1`, the melting point is reported as 150 °C. In the case of `O=C(NCCCCC1CCSS1)N1CCCCC1` (configuration not stated), the melting point is reported as 90 to 91 °C. Work on `BrCc1nsc2nc3ccccc3n12` yielded a melting point of 242 to 244 °C. For `CSC1=NC(=O)C(=Cc2cc(C(C)(C)C)c(O)c(C(C)(C)C)c2)N1C`, the melting point was 177 to 179 °C. `OC(Cc1ccccc1Cl)(Cn1cncn1)C1(Cl)CC1` (configuration not stated) gave a melting point of 107 °C. For `COc1ccc(P2(=O)c3ccccc3CN2c2ccccc2)cc1OC` (configuration not stated), the melting point was 84 to 86 °C. In the case of `N#Cc1cnccc1O`, the melting point is reported as 234 to 236 °C. `CC(C)C1(Cl)Cc2cc(OCC(=O)O)cc(Cl)c2C1=O` (configuration not stated) showed a melting point of 142 °C. Work on `Cc1cn(-c2ccc(N)cc2)cn1` yielded a melting point of 122 to 125 °C. Work on `C=CCC(C(O)=Nc1cc(Cl)cc(Cl)c1)C(C)C(=O)O` (configuration not stated) yielded a melting point of 131 °C. `Cc1cc(OC(F)F)nc(N)n1` gave a melting point of 136 to 137 °C. With `CCOCc1nc2c(N)nc3ccccc3c2n1CC1CCN(Cc2ccccc2)O1` (configuration not stated) the melting point was 137 to 138 °C. In the case of `CS(=O)(=O)Cc1cnc2ccsc2c1O`, the melting point is reported as > 300 °C. Compound `CCS(=O)(=O)c1cc2c(c(C(=O)NCC3CCCN3C)c1)OCCO2` (configuration not stated) has a melting point of 140 to 141 °C. For `Nc1ccccc1CNC1CCC(=O)NC1=O` (configuration not stated), the melting point was 48 to 54 °C. With `CCOc1cc2c(cc1OC)C(=O)CC(C)(C)O2` the melting point was 120 to 122 °C. With `CC(Sc1ccc(OC(C)(C)C(=O)O)cc1)c1cccc2c1cnn2-c1ccc(C(F)(F)F)cc1` (racemic) the melting point was 85 to 90 °C. With `COCCN(C(=O)c1cnc(N2CC(C)(C)NC2=O)nc1N)c1cccc(C(F)(F)F)c1` the melting point was 192 to 193 °C. Work on `NC(Cc1c[nH]c2ccccc12)C(=O)Nc1c(F)cc(F)cc1F` (configuration not stated) yielded a melting point of 45 to 55 °C. In the case of `CCCc1cccc(C2(c3ccc(OC(F)(F)F)cc3)N=C(N)N3CCCN=C32)c1` (configuration not stated), the melting point is reported as 75 to 79 °C. Compound `CON1C(=O)CC2(CCN(C(=O)OC(C)(C)C)CC2)C1=O` has a melting point of 117 °C. `Cc1ccc(NC(=O)N2CCN(CCc3ccc(-c4cccc(N)n4)cc3)CC2)cc1` gave a melting point of 160 to 162 °C. Work on `CN1CCN(CNc2nc(OCc3ccc(F)cc3)ncc2F)CC1` yielded a melting point of 125 to 126 °C. With `Cc1cccc(C(O)C2C(c3ccccc3)CC(=O)N2C)c1` (configuration not stated) the melting point was 163 to 165 °C. `COCC[C@H]1CN(C2=Nc3ccccc3Nc3ccc(C(F)(F)F)cc32)CCN1C` showed a melting point of 48 to 56 °C. With `CN1C(=O)CC[C@]2(C)c3ccc(CCc4ccc5ccccc5c4)cc3CC[C@@H]12` the melting point was 109 to 110 °C. Compound `CN(c1ccccc1C=CC1=NCCC1)C1CCCCC1` has a melting point of 163 to 164 °C. `CCOc1nn(-c2ccc(C(F)(F)F)cn2)cc1CCCOc1ccccc1CC(=O)O` showed a melting point of 83 to 84 °C. Work on `COc1cc(OC)nc(Cc2ccccc2NC(=O)OC(C)(C)C)n1` yielded a melting point of 98 to 100 °C. Compound `NC(=O)C1CCC(NC(=O)NCc2ccc3c(c2)CN(C2CCC(=O)NC2=O)C3=O)CC1` (configuration not stated) has a melting point of 195 to 197 °C. Compound `CCc1nnc(N2CCN(c3ccc(N4CC(CNC(C)=O)OC4=O)cc3F)CC2)s1` (configuration not stated) has a melting point of 237 to 238 °C. `CNC(=O)ON=C1CCOc2ccccc21` gave a melting point of 123 to 126 °C. In the case of `Cc1c(O)ccc2c(=O)c(-c3ccc(Cl)cc3)coc12`, the melting point is reported as 275 °C. For `Cc1ccc(C(=O)Nc2c(NC(=O)CN3CCN(c4ccccc4F)CC3)ccc3c2C(=O)c2ccccc2C3=O)cc1`, the melting point was 228 to 229 °C. With `CCC(=O)Nc1c(C)nn(C)c1C#N` the melting point was 153 to 155 °C. `CCCCCCCOc1ccc(C(=O)O)c(C)c1` gave a melting point of 74 to 76 °C. For `CCCCC(=NOCc1ccc(OCc2nc(-c3ccccc3)oc2C)cc1)C(=O)O`, the melting point was 112 to 114 °C. In the case of `CC(C)(C)OC(=O)N[C@@H]1CCC(=O)OC1=O`, the melting point is reported as 117 to 119 °C. `CC(C)NC1=NS(=O)(=O)c2ccc(CC(=O)O)cc2N1` gave a melting point of 262 to 264 °C. In the case of `Cc1nc2nc(C(=O)NO)cc(S)n2n1`, the melting point is reported as 178 to 179 °C. `CC(=O)NC1CCn2c1nc1cc(NC(=O)c3cc4cc(F)ccc4n3Cc3cccc(F)c3)cnc12` (configuration not stated) showed a melting point of 282 to 283 °C. `Cc1coc2c1C(=O)CC(c1ccc(F)cc1)C2` (configuration not stated) showed a melting point of 81 to 82 °C. `O=C(O)c1ccc(N2CCOCC2)cc1C(=O)O` gave a melting point of 178 to 180 °C. In the case of `CCC(CC)Nc1nc(-c2cc(OC)c(OC)c(OC)c2)nc2sc(C#N)c(C)c12`, the melting point is reported as 226 to 228 °C. Compound `CCOC(=O)N1CCC(CCCOc2ccc(C3=NCCCO3)cc2)CC1` has a melting point of 128 °C. `CCc1nc2c(C)cc(C)nc2n1-c1ccc(CC(C)OC(=O)NS(=O)(=O)c2ccc(C)cc2)cc1` (configuration not stated) showed a melting point of 108 °C. `CCOC(=O)N1CCC(O)(CN)CC1` showed a melting point of 82 °C. Compound `COc1nc2cc(Cl)c(C)c(NS(C)(=O)=O)c2nc1OC` has a melting point of 228 to 229 °C. With `COc1ccc2nccc(NC(=O)N3CCN(CC(O)c4ccc5c(c4)NC(=O)CO5)CC3)c2n1` (configuration not stated) the melting point was 231 to 233 °C. Compound `CC(=O)Nc1ccc(Nc2c([N+](=O)[O-])cc(C(=O)O)cc2S(=O)(=O)NC(C)=O)cc1` has a melting point of 175 to 185 °C. `Cn1cc(-c2cccc(C(F)(F)F)c2)c(=O)c(-c2ccccc2Br)c1` showed a melting point of 197 to 199 °C. Work on `COCCOCOc1c(C(C)(C)C)cc(-c2noc(=O)[nH]2)cc1C(C)(C)C` yielded a melting point of 112 to 114 °C. For `CC(C)c1noc([C@]2(C)CC[C@H](NCC(=O)N3C[C@@H](F)C[C@H]3C#N)C2(C)C)n1`, the melting point was 82 to 85 °C. In the case of `CSc1ncnc2c(N(C)C3CCCCC3)nc(Cl)nc12`, the melting point is reported as 135 to 137 °C. `O=C1C(=O)c2ccccc2C2=C1SCC1(CCOCC1)O2` showed a melting point of 195 to 197 °C. `COCOc1ccc(CCCOc2c(CC(=O)O)cccc2OC)c(Oc2ccc(C(F)(F)F)cn2)c1` gave a melting point of 70 to 72 °C. `CC1=C(C#N)S(=O)c2ccc(C(F)(F)F)cc2N1` (configuration not stated) gave a melting point of 290 to 292 °C. Work on `Cc1nc2ccccc2c(NCC(O)CO)c1Br` (configuration not stated) yielded a melting point of 140 to 141 °C. In the case of `CCn1c(=O)c2[nH]c(/C=C/c3ccc(F)c(F)c3)nc2n(CC)c1=O`, the melting point is reported as > 300 °C. Compound `CC1NC(=NC2CNCCO2)N(CCO)C1C` (configuration not stated) has a melting point of 108 to 109 °C. For `COc1ccc2c(-c3ccccc3F)noc2c1`, the melting point was 101 to 103 °C. `CCSc1cc(C)nc(SCC)c1NC(=O)CCCCCSc1nc2ccccc2s1` showed a melting point of 81 to 83 °C. Compound `COc1cc(OCCN(C)C)ccc1/C=C/c1cc(/C=C/c2ccc3cc[nH]c3c2)[nH]n1` has a melting point of 109 to 112 °C. Compound `Cc1ccccc1-c1c(Cl)nc2ccccc2c1Cl` has a melting point of 78 to 80 °C. Work on `O=C1c2ccccc2CCc2cc(Br)ccc21` yielded a melting point of 94 to 96 °C. Work on `CCN(CC)CCNC(=O)N1CCc2cc(OC)c(OC)cc2C1c1ccccc1` (configuration not stated) yielded a melting point of 97 to 98 °C. For `Cn1nc(C(F)(F)F)cc1Oc1cccc(Cl)n1`, the melting point was 56 to 58 °C. Work on `CC(C)NCC(=O)Nc1ccc2c(c1)C(=O)c1cc(NC(=O)CNC(C)C)ccc1C2=O` yielded a melting point of 158 °C. Work on `COC(=O)c1ccc(OCCNC(=O)C2Cc3ccccc3N2S(=O)(=O)c2ccc(-c3ccc(F)cc3)cc2)cc1Cl` (configuration not stated) yielded a melting point of 70 to 79 °C. Work on `CS(=O)(=O)c1ccc(-n2nc(C(F)(F)F)cc2-c2nc3cc(F)ccc3[nH]2)cc1` yielded a melting point of 278 to 280 °C. In the case of `Clc1sc(Cl)c2c1CNC2`, the melting point is reported as > 270 °C. `Cn1cncc1C(N)(c1ccoc1)c1ccc2c(c1)c(-c1cccc(Cl)c1)cc(=O)n2C` (configuration not stated) showed a melting point of 197 °C. `CN(CCCC(C(N)=O)(c1ccccc1)c1ccccc1)CCc1ccc2c(c1)OCO2` gave a melting point of 89 to 90 °C. `CCS(=O)c1ccc(-c2nc3n(c2-c2ccncc2)CCC3)cc1` (configuration not stated) showed a melting point of 108 to 110 °C. Work on `CCc1cc(NCc2nc3ccccc3s2)c(=O)[nH]c1C` yielded a melting point of 209 to 210 °C. In the case of `CCOC(=O)c1c(S)nc(-c2ccccc2)c([N+](=O)[O-])c1C(=O)OCC`, the melting point is reported as 129 to 132 °C. `CS(=O)(=O)c1ccc(-c2nn3c(-c4ccccc4)c(-c4ccccc4)oc3c2-c2ccc(F)cc2)cc1` gave a melting point of 228 to 229 °C. Compound `CON(Cc1ccccc1C)C(=O)C1=C(O)C(=O)N(C)C1` has a melting point of 153 to 154 °C. With `COc1ccc(C(CCN(C)C)c2ncc[nH]2)cc1` (configuration not stated) the melting point was 131 to 133 °C. For `COc1cc2c(cc1Nc1ncc(Cl)c(N[C@@H]3CCCC[C@H]3NS(C)(=O)=O)n1)CCOC(=O)N2C`, the melting point was 160 to 162 °C. In the case of `CS(=O)(=O)C(=C1CN(C(c2ccccc2)c2ccccc2)C1)c1ccc(Cl)cc1Cl`, the melting point is reported as 165 °C. Compound `CC(=O)C1=C(C)c2ccccc2C1(C)C` has a melting point of 104 to 105 °C. Work on `CCOC(=O)C1(C(=O)Nc2cc(Cl)c(Cl)cc2C)CC1` yielded a melting point of 105 to 107 °C. In the case of `COc1ccc(-c2cnc3cc4cn(CCOC(C)=O)nc4cc3n2)cc1F`, the melting point is reported as 175 to 178 °C. In the case of `OCc1cn(-c2ccc(C(F)(F)F)cn2)nc1C1CCCCC1`, the melting point is reported as 138 to 139 °C. Compound `CCCOc1nc(NC(C)C(O)c2ccccc2)c2cnn(-c3ccccc3)c2n1` (configuration not stated) has a melting point of 136 to 138 °C. For `O=C(CSc1ccc(Cl)cc1C(=O)O)c1ccccc1`, the melting point was 154 to 156 °C. For `CCCCCN1CC[C@@H](c2ccccc2Cl)[C@H](CO)C1` (racemic), the melting point was 101 to 102 °C. In the case of `COc1ccc(CCNC(=O)N(C)O)cc1OCc1ccccc1`, the melting point is reported as 125 to 126 °C. Compound `O=C(c1ccc(O)cc1)c1c(F)c(F)c(F)c(F)c1F` has a melting point of 138 to 140 °C. `COc1ccc(N2CCN(CCn3c(=NC(=O)C(F)(F)F)sc4cc(C(F)(F)F)ccc43)CC2)cc1` gave a melting point of 120 °C. In the case of `CCOC(=O)c1cn(C2CC2)c2c(OC(F)F)c(F)c(F)c([N+](=O)[O-])c2c1=O`, the melting point is reported as 262 to 268 °C. `Nc1cc(Cl)cc(Cc2cc(Cl)cc(N)c2O)c1O` gave a melting point of 212 to 215 °C. With `Cc1ccc2c(c1)C(=O)c1ccc(C#N)cc1S2(=O)=O` the melting point was 290 °C. Work on `O=C(O)c1ccc(C(=O)O)c(-c2nc3ccccc3o2)c1` yielded a melting point of 284 °C. `N#Cc1ncccc1C(=O)OCC(Cl)(Cl)Cl` showed a melting point of 103 °C. For `CC(=O)c1ccc(OCCNC(=O)OCc2ccccc2)cc1`, the melting point was 80 to 81 °C. For `Cc1sc(C2=NOC(c3cc(Cl)cc(Cl)c3)(C(F)(F)F)C2)cc1C(=O)NCC(=O)NCC#N` (configuration not stated), the melting point was 158 to 161 °C. Work on `CCOC(=O)c1cc2c(nc1N)CCN(Cc1ccccc1)C2` yielded a melting point of 141 to 143 °C. Work on `NS(=O)(=O)c1cccc(NC(=O)c2cnn3c(C(F)F)cc(-c4ccc(C(F)(F)F)c(F)c4)nc23)c1` yielded a melting point of 262 °C. With `COC(=O)c1nc(N)ccc1Oc1nc(OC)cc(OC)n1` the melting point was 67 to 69 °C. `CCOC(=O)C1=C(C)NC(C=O)=C(C(=O)OCC)C1c1ccccc1OC` (configuration not stated) gave a melting point of 111 to 112 °C.
